# Source: US11008311B2, “Potassium salt of benzimidazole compound and preparation method therefor, composition and application thereof” (WUHAN LL SCIENCE AND TECHNOLOGY DEVELOPMENT CO., LTD., priority 2016, dated 2021)
# Legend:
# [1] = test system: spontaneously hypertensive rats; assay: Antihypertensive efficacy test in spontaneously hypertensive rats (systolic blood pressure and heart rate by implanted blood pressure sensor); type: in vivo, rat; details: SHR, intragastric, 1 mg/kg as azilsartan; for Change in heart rate / Changes in systolic blood pressure: mean ± standard error
# Experimental: 12-week-old spontaneously hypertensive rats (hereinafter referred to as SHR, purchased from Beijing Vital River Laboratory Animal Technology Co., Ltd.) were anesthetized with 2.5% sodium pentobarbital for intraperitoneal injection. The blood pressure sensing catheter of a blood pressure implant was inserted into the abdominal aorta, the implant was fixed to the abdominal wall, and the postoperative daily care was performed after suturing. Animals with systolic blood pressure exceeding 160 mmHg were selected into a total of 3 groups with 8 animals in each group. The control group was given 0.5% CMC-Na (sodium carboxymethylcellulose); in the OR01019 group and the QR01019K group, the compounds were dissolved in 0.5% CMC-Na, and the doses were all administered at an effective dose of 1 mg/kg of azilsartan with an administration volume of 4 mL/kg by intragastric administration. The systolic blood pressure and heart rate of the animals before the administration were used as reference values, and the changes of systolic blood pressure and heart rate of SHR at each time point before and after administration were compared, in which the systolic blood pressure and heart rate of SHR were measured three times at each time point and then averaged.
# [2] = Determination of equilibrium solubility; type: physicochemical; details: for solubility thermodynamic at 24 h: 37 °C, thermodynamic from solid, 37±2° C., based on azilsartan
# [3] = before administration (reference value)
# [4] = aqueous buffer, pH 4.5 (acetate buffer)
# [5] = aqueous buffer, pH 6.8 (phosphate buffer)
# [6] = aqueous buffer, pH 7.8 (phosphate buffer)
# [7] = simulated gastric fluid, pH 1.0 (hydrochloric acid solution)
structure (smiles),measurement,setting,value
CCOc1nc2cccc(C(=O)OC(C)OC(=O)OCc3nc(C)c(C)nc3C)c2n1Cc1ccc(-c2ccccc2-c2noc(=O)[n-]2)cc1.[K+] (centres unmarked) [QR01019K],antihypertensive effect compared with QR01019 (in words),[1],more potent and longer-lasting antihypertensive effect than QR01019
same,effect of reducing heart rate compared with QR01019 (in words),[1],more potent and longer-lasting effect of reducing heart rate than QR01019
same,Change in heart rate,[1]; 1 hour after administration,−3.6 ± 2.4 times/minute
same,Changes in systolic blood pressure,[1]; 1 hour after administration,−7.0 ± 3.4 mmHg
same,Change in heart rate,[1]; 3 hours after administration,−5.0 ± 2.5 times/minute
same,Changes in systolic blood pressure,[1]; 3 hours after administration,−34.3 ± 1.9 mmHg
same,Change in heart rate,[1]; 5 hours after administration,−10.1 ± 3.0 times/minute
same,Changes in systolic blood pressure,[1]; 5 hours after administration,−46.5 ± 2.5 mmHg
same,Change in heart rate,[1]; 7 hours after administration,−17.5 ± 3.0 times/minute
same,Changes in systolic blood pressure,[1]; 7 hours after administration,−49.4 ± 4.1 mmHg
same,Change in heart rate,[1]; 10 hours after administration,−25.4 ± 2.4 times/minute
same,Changes in systolic blood pressure,[1]; 10 hours after administration,−45.3 ± 3.3 mmHg
same,Change in heart rate,[1]; 24 hours after administration,−28.6 ± 8 times/minute
same,Changes in systolic blood pressure,[1]; 24 hours after administration,−25.9 ± 3.4 mmHg
same,Change in heart rate,[1]; [3],0.0 ± 0.0 times/minute
same,Changes in systolic blood pressure,[1]; [3],0.0 ± 0.0 mmHg
same,solubility thermodynamic at 24 h,[2]; [4],2.3 µg/mL
same,solubility thermodynamic at 24 h,[2]; [5],25.9 µg/mL
same,solubility thermodynamic at 24 h,[2]; [6],400 µg/mL
same,solubility thermodynamic at 24 h,[2]; [7],18.7 µg/mL
same,solubility thermodynamic at 24 h,[2]; Pure water,542 µg/mL
same,concentrations in acidic and neutral media compared with QR01019 (in words),"[2]; equilibrium solubility, Table 5",much higher than QR01019
"CCOc1nc2cccc(C(=O)OC(C)OC(=O)OCc3nc(C)c(C)nc3C)c2n1Cc1ccc(-c2ccccc2-c2noc(=O)[nH]2)cc1 (centres unmarked) [QR01019, reference compound]",Change in heart rate,[1]; 1 hour after administration,−3.4 ± 2.6 times/minute
same,Changes in systolic blood pressure,[1]; 1 hour after administration,−4.9 ± 4.8 mmHg
same,Change in heart rate,[1]; 3 hours after administration,−2.33 ± 2.6 times/minute
same,Changes in systolic blood pressure,[1]; 3 hours after administration,−22.0 ± 3.6 mmHg
same,Change in heart rate,[1]; 5 hours after administration,−6.5 ± 2.8 times/minute
same,Changes in systolic blood pressure,[1]; 5 hours after administration,−30.5 ± 3.5 mmHg
same,Change in heart rate,[1]; 7 hours after administration,−6.2 ± 3.0 times/minute
same,Changes in systolic blood pressure,[1]; 7 hours after administration,−38.8 ± 2.3 mmHg
same,Change in heart rate,[1]; 10 hours after administration,−12.3 ± 2.8 times/minute
same,Changes in systolic blood pressure,[1]; 10 hours after administration,−33.0 ± 1.7 mmHg
same,Change in heart rate,[1]; 24 hours after administration,−6.7 ± 2.6 times/minute
same,Changes in systolic blood pressure,[1]; 24 hours after administration,−10.2 ± 2.1 mmHg
same,Change in heart rate,[1]; [3],0.0 ± 0.0 times/minute
same,Changes in systolic blood pressure,[1]; [3],0.0 ± 0.0 mmHg
same,solubility thermodynamic at 24 h,[2]; [4],0.06 µg/mL
same,solubility thermodynamic at 24 h,[2]; [5],1.6 µg/mL
same,solubility thermodynamic at 24 h,[2]; [6],13.6 µg/mL
same,solubility thermodynamic at 24 h,[2]; [7],2.01 µg/mL
same,solubility thermodynamic at 24 h,[2]; Pure water,0.74 µg/mL
